We go through four compounds from patent US20200054271A1, “COMPUTER-BASED LIVER MODEL” (priority 2017, published 2020).

In data set [1] the test system is bile canaliculi (BC) network. Put plainly: BC network geometry (BC radius) from 3D reconstruction of CD13-stained fixed liver tissue sections. In kind it is in vivo, mouse. How it is done: (§1) As controls, mice were administered 0.9% saline.
All steps were performed at room temperature.
Fixed tissue was imaged with a Zeiss laser scanning microscope 780 NLO using a 63×1.3 numerical aperture (NA) glycerol immersion objective (Zeiss), a Chameleon Ti-Sapphire 2-photon laser (780 nm), 488 and 561 laser lines and Gallium arsenide phosphide (GaAsp) detectors.
3D reconstructions of the BC network were performed on high-resolution IF image stacks of fixed liver tissue stained for the apical marker CD13 (voxel size: 0.28×0.28×0.3 μm, 70-80 μm in depth). A tile of 2×1 image stacks was stitched to cover an entire CV-PV axis. Images were processed, analyzed and reconstructed using the software MotionTracking as described in (Morales-Navarrete et al., 2015). In brief, images were segmented using a local thresholding algorithm (maximum entropy), segmented objects were corrected for artefacts using standard morphological operations (opening/closing) and the triangulation mesh of the segmented surfaces was generated by the cube marching algorithm. The active mesh was tuned to align the triangle mesh vertexes to the maximum gradient of fluorescence intensity in the original image. A representation of the skeletonized image was generated using a 3D graph describing the geometrical and topological features of the BC network. For the spatial analysis of BC radius, porosity and network density, the CV-PV axis was computationally divided into 20 equidistant zones based on the distance dof each position x from the CV (dCV) and PV (dPV):
Then, the average radius and porosity was determined per zone. For the radius, the minimal distance of each node of the central line of the BC network was quantified in the xy-plane. For the BC network density, the network length per tissue volume was calculated. For the tissue porosity, […]

For data set [2] the following is noted: from the literature; cited from earlier work.
For data set [3], the system named is bile flow in the BC network. Put plainly: Bile velocity and apical CF transport by intravital microscopy (IVM) of CF(DA) transport with 3-compartment model. Format: in vivo, mouse. How it is done: as §1
The objective was heated to 37° C.
Quantification of the CF intensity in the hepatocyte cytoplasm and BC from IVM movies was performed using the image analysis software MotionTracking. Following correction for shift, IVM movies contained 16-21 frames per stack, covering 15-20 μm in z. To avoid liver damage from photo-toxicity, IVM movies were acquired with minimum laser intensities resulting in low signal-to-noise ratio. […] Therefore, we used the modified Mean-Shift algorithm to separate the CF fluorescence from the background. The result of the background/foreground discrimination was checked manually. The BC were detected in three steps. First, the image was convolved with Laplacian of Gaussian. Second, pixels with an intensity >2 standard deviations of the local noise were defined as potential BC. The local noise was determined from the local intensity minimums in at least one of 4 discrete directions. Third, along the line of the local maximum intensity direction of a BC, pixels that co-localized with sharp intensity transitions between the cytoplasm and sinusoids were excluded from the BC compartment. For all compartments (cytoplasm, BC and background), the mean intensity was calculated. To avoid mixing of compartments from light scattering of bright objects (BC to cytoplasm and cytoplasm to background), the area within the radius of 2 pixels from the object border was excluded from the calculation.
The transport of CF(DA) from the blood into and through the biliary network was described in a mathematical model that considers 3 hepatic compartments: the blood (s), hepatocytes cytoplasm (c) and bile canaliculi (b) (see FIG. 2F). Dye propagation through these three compartments was modelled for three spatially distinct zones within the liver lobule: The CV, MD and PV zone as defined in FIG. 2C. The different zone geometries of the kite-shaped CV-PV axis were accounted for by introducing respective geometry factors. The model considers that only a fraction of the injected CFDA is delivered to the liver, whereas the rest is cleared by other tissues at rate κclear. The injection of CFDA into the blood circulation is described by Pulse(t). It is defined by the time point of injection start (τ1) and the injection duration (τ2) assuming that CFDA is injected with constant rate in time t>τ1 and <τ1+τ2. Both τ1 and τ2 were fitted by the model with boundary intervals 40-80 sec (τ1) and 20-60 sec (τ2). In the liver, the model considers that CFDA is taken up from the blood with a permeability coefficient Perm=3 sec^−1 (according to (Breeuwer et al., 1995), considering a mammalian plasma membrane thickness of 4 nm), converted into CF by cytoplasmic esterases with cleavage rate κcleav and secreted by apical transporters with transporter activity κpump. To account for the spatial heterogeneity of esterase and transporter levels within the CV-PV axis, the amounts of both esterases (qi) and apical transporters (q1i) were determined for each zone (i=cv, md, pv). The model further considers passive back flux of CF from the BC into the hepatocyte cytoplasm at rate κli. The bile canaliculi compartment of the three zones is connected, occurs unidirectional and sequential from the CV to the MD with transport rate
Bile flow velocity vi at the interfaces of the lobule zones was estimated from the volume flux rates
considering the size of the zone volumes V and zone boundaries Ai (i=cv, md, pv) as well as a CV-PV axis distance L of 229 μm: […]

For data set [4] the following is noted: according to Breeuwer et al., 1995, considering a plasma membrane thickness of 4 nm; cited from earlier work.
The conditions of data set [5]: mouse, in vivo, iv.
Protocol: Mouse anaesthesia was induced with 3-4% isoflurane/0.3% oxygen and maintained by i.p. injection of ketamine/xylazine throughout the experiment. Mice received 20 U of heparin dissolved in 0.9% (w/v) NaCl by i.p. injection to prevent ischemia of the liver during the course of imaging. To visualize hepatocyte nuclei, Hoechst 33258 dissolved in 0.9% (w/v) NaCl was administered retro-orbitally at a dose of 2 mg/kg and in a total volume of 50 μl. To expose the liver for imaging, the abdominal fur was removed using an electric shaver and a small transversal incision of 1 cm was made at the height of the sternum to expose the left lateral liver lobe using a surgical scissor and cauterizer. The mouse was positioned on the stage of an IX81 inverted confocal microscope equipped with a Fluoview 1000 scanning head (Olympus America) and a heat-adjustable UPLSAPO30X, 30×1.05 NA silicon oil objective (Olympus). The objective was heated to 37° C. To avoid compression of the liver lobe and to stabilize the tissue, the stage was designed with a small hole in the center into which the left lateral lobe was carefully placed. The residual volume of the hole was filled with a water based and transparent 1% carbomer gel (0.3 M Sorbitol, 1% (w/v) Carbomer 940, polymerized by addition of triethanolamine and adjusted to pH 7) to immobilize the organ and prevent the organ from drying out. The bottom of the hole was designed with a coverslide through which the organ was accessible for imaging. The animal body temperature was kept at 37° C. using a red lamp. Prior to imaging start, 18 mg/kg of 70 kDa Rhodaminedextran or 20 μl of Qtracker 655 vascular label dissolved in 0.9% (w/v) NaCl was injected retro-orbitally to identify the lobule orientation from the vascular flow pattern. To monitor the flux of CFDA in the liver, CFDA, dissolved in dimethyl sulfoxide (DMSO), was injected retro-orbitally at a dose of 0.2 mg/kg in a total volume of 50 μl. CFDA injection was performed slowly (approx. 30 sec) to avoid hydrodynamic effects and performed at 1 min after image acquisition start. […]
Data set [6] deals with phosphorylated myosin light chain (pMLC). The experiment in a line: Western blot of phosphorylated myosin light chain in liver tissue of treated mice. Format: in vivo. The note with it: 20 mg/kg Fasudil for 1.5 h, mouse liver. How it is done: As controls, mice were administered 0.9% saline. […] Cell debris were removed by centrifugation for 10 min at 12 000×g at 4° C. and protein was denatured at 95° C. in presence of 100 mM dithiothreitol (DTT). A total of 10 μg protein was separated by sodium dodecyl sulfate polyacrylamide gel electrophoresis, and transferred onto a nitrocellulose membrane. Membranes were blocked and incubated with primary antibodies against glyceraldehyde 3-phosphate dehydrogenase (GAPDH, 1:2000) or phospho-myosin light chain (pMLC, 1:500) and HRP-conjugated secondary antibodies (1:10000) in 5% dry-milk, 10 mM Tris-HCl pH 8.0, 200 mM NaCl, 0.1% Tween20. Protein was detected using the enhanced chemiluminescence (ECL) detection kit (GE Healthcare, Buckinghamshire, UK) and chemiluminescence films (GE Healthcare, Buckinghamshire, UK) according to manufacturer's instructions. Plasma membrane contractility is determined by the cortical acto-myosin system ([…] et al., 2016; Tsukada and Phillips, 1993). […] Consequently, inhibition of acto-myosin contractility should affect biliary fluid dynamics. […] We next analyzed the BC network geometry on fixed liver tissue sections and found a dilation of BC in Fasudil-treated mice (FIG. 5B).
(In general: Immunoblotting shows a protein as a band on a membrane.)

Setting [7] is: APAP 150 mg/kg i.p., 2 h, IVM of CF(DA) transport.

Regarding `CC(=O)Nc1ccc(O)cc1` [APAP, acetaminophen], the “dilation of BC, CV zone” value in data set [1] (APAP 150 mg/kg i.p., 2 h, immersion fixed, CV zone, pvalue<0.01) is on record as “up to 20%”. Moreover, the “dilation of BC, MD zone” value in data set [1] (APAP 150 mg/kg i.p., 2 h, immersion fixed, MD zone, pvalue<0.0001) is at most 18%. The “maximum reported sub-toxic dose” value in data set [2] is on record as 150 mg/kg. Besides, in data set [3] (setting [7]), the “bile velocity in the peri-portal zone” value is “remained almost unaffected”; the “measured increase in bile velocity in the CV and MD zones” value is reported as 1.4-1.6 fold. In addition, the “effects on osmolite secretion” value in data set [3] (APAP treatment) is given as “marginal”.
For the compound `CC(=O)Oc1ccc2c(c1)Oc1cc(OC(C)=O)ccc1C21OC(=O)c2ccc(C(=O)O)cc21` [CFDA, 6-carboxyfluorecein-diacetate], the “permeability coefficient Perm for uptake from the blood” value in data set [4] is 3 s⁻¹. Moreover, the “time until detectable in the hepatocyte cytoplasm” value in data set [5] is “within seconds”.
For `O=S(=O)(c1cccc2cnccc12)N1CCCNCC1` [Fasudil], the “BC radius increase as compared to control mice, MD zone” value in data set [1] (Fasudil 20 mg/kg i.p., 1.5 h, MD zone, pvalue<0.0001) was “up to 12%”. Besides, the “BC radius increase as compared to control mice, PV zone” value in data set [1] (Fasudil 20 mg/kg i.p., 1.5 h, PV zone, pvalue<0.001) is on record as at most 7%. The “extrapolated BC radius at x=L, at(L)” value in data set [1] (Fasudil-treated mice, apparent radius at portal outlet) is listed as 1.422 μm. For the same compound, the “phosphorylated myosin light chain (pMLC) protein levels” value in data set [6] is recorded as “reduction”. Also, the “reduction of bile velocity across the CV-PV axis as compared to control mice” value in data set [3] (Fasudil 20 mg/kg i.p., 1.5 h, IVM of CF(DA) transport) is given as 50-58%. The “apical CF transport” value in data set [3] (Fasudil-treated mice, IVM) is listed as “reduction”. Also, the “apical secretion fluxes summed over the entire CV-PV axis, Jt” value in data set [3] (Fasudil-treated, t=500 sec) was 0.0390 arbitrary intensity units per time. Also, in data set [3] (Fasudil-treated, t=500 sec, CV zone), the “apical secretion flux of CF, CV zone” value is 0.0019 arbitrary intensity units per time. Besides, the “apical secretion flux of CF, MD zone” value in data set [3] (Fasudil-treated, t=500 sec, MD zone) is listed as 0.0312 arbitrary intensity units per time. For the same compound, the “apical secretion flux of CF, PV zone” value in data set [3] (Fasudil-treated, t=500 sec, PV zone) is 0.0059 arbitrary intensity units per time.
On to `O=C(O)c1ccc2c(c1)C1(OC2=O)c2ccc(O)cc2Oc2cc(O)ccc21` [CF, 6-carboxyfluorescein], for which, in data set [5], the “time until cleared from the system” value is on record as around 40 min and the “time until visible in the BC network” value is 3 to 5 min.
